Patent publication US5849709A, “Saccharopeptides and derivatives thereof” (Glycomed Incorporated, priority 1995, dated 1998)

How the values were obtained:
β-glucuronidase = test: β-Glucuronidase inhibition assay (Sigma kit 325-A, phenolphthalein glucuronic acid substrate); type: biochemical; details: 15 μl of 50 mM 9β; for A550 value (β-glucuronidase assay): 550 nm, pH 4.5
Method: The β-glucuronidase inhibition assay is preferably performed in a solvent. Examples of the solvent include water and a suitable buffer, preferably an acetate or an AMP (2-amino-2-methyl-1-propanol) buffer. Phenolphthalein mono-β-glucuronic acid and a saccharopeptide substrate are treated with the enzyme at room temperature, at a pH of about 4-5. The reaction period ranges from 0.5-2 hours. After completion of the reaction, the enzymic reaction is stopped by adjusting the pH and the absorbance is measured at 550 nm.
Composition 9β was used to measure the β-glucuronidase activity, and the measurement was performed in the same manner as that of the conventional method.
The procedure was carried out according to instructions provided in the Sigma kit 325-A. The reagents used were provided in the kit and the proportions of the reagents used is described in the table below:
______________________________________
*0.2M sodium acetate buffer, pH 4.5 at 25° C.;
^# 30 mM phenolphthalein glucuronic acid (PGA), pH 4.5 at 25°
All components, except PGA, were pre-incubated at room temperature for 30 min, PGA was then added to the mixture. At various time points (0.5, 1 and 2h), 2 μl aliquots were removed and added to 1 ml assay diluent, mixed and absorbance read at 550 nm against the blank (A550). The assay diluent is a mixture of acetate buffer (1.44 ml), water (0.96 ml) and AMP (2-amino-2-methyl-1-propanol) buffer (12 ml, 0.1M AMP, pH 11, containing 0.2% sodium lauryl sulfate).

human recombinant bFGF = human recombinant bFGF (Homo sapiens, UniProt P09038); test: UC-PBA assay: binding of RO-12 UC cells to bFGF coated micro-titer wells; type: cell-based; details: for bFGF binding activity in the UC-PBA assay: heparin as positive control
Method: The effect of compositions 26 on the binding of RO-12 UC cells to bFGF coated micro-titer wells was determined as described by Ishihara, M., et al., Anal Biochem (1992) 202:310-315. (Also see U.S. Pat. No. 5,296,471, issued Mar. 22, 1994). Bound cells are readily quantitated as total protein.
The assay was run as follows: Fifty microliters of 10 μg/ml human recombinant bFGF was added to wells of a 96-well tissue culture plate and incubated overnight at 4° C. The wells were aspirated with PBS to remove any unbound bFGF, rinsed twice with PBS, and subsequently incubated with PBS containing 5% (v/v) fetal bovine serum for 1 hour at room temperature. RO-12 UC cells were suspended at a density of 3×10^6 cells/ml in PBS containing 5% fetal bovine serum. To this mixture was added the desired amount of sulfated composition, or heparin. They were made up in PBS plus 2.5% fetal bovine serum. A control was also run, containing only PBS plus 2.5% fetal bovine serum. Next, 100 μl of the cell suspension was immediately added to the microtiter wells, and incubated for 5 minutes, after which the wells were washed 3 times with PBS. Finally, the amount of cell protein bound to the wells was determined by dissolving the bound cells in 20 μl of 5% SDS and measuring the protein concentration of the cell lysates. BSA was used as the standard.
(§1) The APTT values of composition 26 were determined as described in U.S. Pat. No. 5,296,471. Table 3 lists the results for the UC-PBA assay, the ACE cell growth inhibition assay, and the APTT values respectively.

APTT = test: APTT
Method: as §1

human recombinant bFGF, sequence (P09038 134-288): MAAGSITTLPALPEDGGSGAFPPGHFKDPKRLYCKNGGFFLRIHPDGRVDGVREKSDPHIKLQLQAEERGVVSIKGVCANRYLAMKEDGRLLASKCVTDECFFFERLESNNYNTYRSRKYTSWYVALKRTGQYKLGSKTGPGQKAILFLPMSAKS

Compound | reduction of β-glucuronidase activity (β-glucuronidase) | A550 value (β-glucuronidase assay) (β-glucuronidase; 0.5 h, room temperature (control 0.104)) | A550 value (β-glucuronidase assay) (β-glucuronidase; 1.0 h, room temperature (control 0.199)) | A550 value (β-glucuronidase assay) (β-glucuronidase; 2.0 h, room temperature (control 0.396)) | IC50 (human recombinant bFGF; RO-12 UC cells, bFGF coated wells) [nM] | bFGF binding activity in the UC-PBA assay (human recombinant bFGF) | APTT value (APTT; as described in U.S. Pat. No. 5,296,471) [%] | APTT value, comparison in words (APTT; versus other compounds of similar size)
[N-]=[N+]=N[C@@H]1O[C@H](C(=O)N[C@@H]2O[C@H](C(=O)O)[C@@H](O)[C@H](O)[C@H]2O)[C@@H](O)[C@H](O)[C@H]1O [Composition 9β, N-(β-D-glucopyran-1-osyluronic acid)-1-azido-1-deoxy-β-D-glucopyranuronamide] | about 85% | 0.014 | 0.030 | 0.059 |  |  |  | 
O=C(CCC(=O)N[C@@H]1O[C@H](COS(=O)(=O)O)[C@@H](O[C@H]2O[C@H](COS(=O)(=O)O)[C@@H](O[C@H]3O[C@H](COS(=O)(=O)O)[C@@H](OS(=O)(=O)O)[C@H](OS(=O)(=O)O)[C@H]3OS(=O)(=O)O)[C@H](OS(=O)(=O)O)[C@H]2OS(=O)(=O)O)[C@H](OS(=O)(=O)O)[C@H]1OS(=O)(=O)O)N[C@@H]1O[C@H](COS(=O)(=O)O)[C@@H](O[C@H]2O[C@H](COS(=O)(=O)O)[C@@H](O[C@H]3O[C@H](COS(=O)(=O)O)[C@@H](OS(=O)(=O)O)[C@H](OS(=O)(=O)O)[C@H]3OS(=O)(=O)O)[C@H](OS(=O)(=O)O)[C@H]2OS(=O)(=O)O)[C@H](OS(=O)(=O)O)[C@H]1OS(=O)(=O)O [Composition 26] |  |  |  |  | 372 | comparable to heparin | 14.2 | significantly lower than that of other compounds of similar size
Heparin [reference compound] |  |  |  |  |  | inhibits RO-12 UC cell binding |  | 
